Tests used:
Spodoptera litura = assay: Effectiveness against Spodoptera litura (Testing Example 2); type: in vivo; conditions: second-instar larvae, 500 ppm spray on soybean, 28° C., 24 hours
Description: Testing Example 2: Effectiveness against Spodoptera litura
Twenty milliliters of a 500 ppm, water-diluted solution (with Dyne® Takeda Chem. Ind. Ltd., spreading agent, as diluted 3000-fold) of the test compound (the emulsifiable concentrate of Example 6) was sprayed on grown seedlings (10 days after germination) of soybean plant water-cultured in a polyethylene cup by the use of a spray gun (nozzle pressure of 1 kg/cm^2 gauge) in a spraying chamber. 2 hours after spraying, two main leaves of soybean plant were cut off and were placed into two cups (6 cm in diameter and 4 cm in depth), respectively, and ten second-instar larvae of Spodoptera litura were liberated. The cups were left in the room (28° C.) for 24 hours, and the dead larvae were counted.

[1] = Oral acute toxicity in mice (Toxicological Test); conditions: mouse, in vivo, five-week aged ddY-SLC strained male mice
Description: Below tabulated are the oral acute toxicity values obtained with five-week aged, ddY-SLC strained male mice: […]

Tetranychus urticae = assay: Effectiveness against Tetranychus urticae (Testing Example 4); type: in vivo; conditions: decrease rate grade, 500 ppm spray on kidney bean plant; for Efficacy grading, 2nd day: 2nd day after spraying; for Efficacy grading, 7th day: 7th day after spraying
Description: Testing Example 4: Effectiveness against Tetranychus urticae
A test compound was processed into an emulsifiable concentrate in accordance with the formulation of Example 6, and diluted with water (with Dyne®, spreading agent, as diluted 3000-fold) to prepare a 500 ppm aqueous solution. Ten female adults of Tetranychus urticae) were infected on the seedling of a kidney bean plant water-cultured in a polyethylene cup, and the cups were placed in a glass chamber (28° C.) for 24 hours, followed by spraying 20 ml of the aqueous solution on the kidney bean plant. After the sprayed cup was placed again in the glass chamber, the number of the adults and larvae living on the leaves was counted on the 2nd and 7th days after spraying. The test was repeated twice, and the test results are tabulated in Table 5 in terms of the efficacy grading as determined by calculating a decrease rate by the following equation:
Decrease rate (%)=[(number of mites tested-number of larvae living on the day of inspection)/(number of mites tested)]×100

Laodelphax striatellus [2] = assay: Effectiveness against Laodelphax striatellus, third-instar larvae, root dip (Testing Example 1 (a)); type: in vivo; conditions: 40 ppm emulsifiable concentrate dilution, root dip 2 hours, 28° C., 24 hours, read-out: Mortality (I)
Description: (§1) Testing Example 1: Effectiveness against Laodelphax striatellus
(a) A test compound was processed into an emulsifiable concentrate in accordance with the formulation of Example 6, followed by diluting with water to prepare a treating solution of a 40 ppm concentration. 2.5 ml of the treating solution was placed into a test tube (with 1.7 cm of diameter, 4 cm deep), in which three seedlings of a paddy-rice plant (on the 7th day after germination) were allowed to stand so their root portions were dipped into the solution for 2 hours. The seedlings were then transferred into a test tube having 1 ml water placed in the bottom, and ten third-instar larvae of Laodelphax striatellus were released. After allowing the test tube to stand in the room (28° C.) for 24 hours, the dead larvae were counted. The test is repeated twice, and the test results are tabulated, in terms of mortality, in Table 2 (I).

Laodelphax striatellus [3] = assay: Effectiveness against Laodelphax striatellus, adults, dust on paddy-rice plant (Testing Example 1 (b)); type: in vivo; conditions: small brown planthopper, adults on dusted rice, 24 h
Description: as §1
(b) A test compound was processed into a dust preparation in accordance with the formulation of Example 8, and […] of the preparation was dusted on the potted paddy-rice plant (1/5,000 a) by the Berger Duster method. After dusting, leaves (15 cm long) of the paddy rice were cut off and were placed in a test tube containing 1 ml of water in the bottom, and ten adults of Laodelphax striatellus were released therein. After allowing the test tube to stand in the room (28° C.) for 24 hours, the dead insects were counted.

Row | Structure (SMILES) | mortality at 500 ppm (Spodoptera litura) [%] | LD50 [1] [mg/kg] | Efficacy grading, 2nd day (Tetranychus urticae) | Efficacy grading, 7th day (Tetranychus urticae) | mortality at 40 µg/mL (Laodelphax striatellus [2]) [%] | Mortality (II) (Laodelphax striatellus [3]) [%]
1 | CCCSP(=O)(OCC)Oc1cnn(-c2ccc3c(c2)OCO3)c1 (stereo not shown) [compound 41] | 100 | 50 to 300 | 3 (Not less than 90) | 3 (Not less than 90) |  | 
2 | CCOP(=S)(OCC)Oc1cnn(-c2ccc(Cl)cc2)c1 [compound 15] |  | > 300 | 3 (Not less than 90) | 0 (Not more than 20) |  | 
3 | CCCSP(=S)(OCC)Oc1cnn(-c2ccc(Cl)cc2Cl)c1 (stereo not shown) [compound 30] | 100 | > 300 | 3 (Not less than 90) | 3 (Not less than 90) |  | 
4 | CCCSP(=O)(OCC)Oc1cnn(-c2cccc(C(F)(F)F)c2)c1 (stereo not shown) [compound 27] | 100 | 50 to 300 |  |  |  | 
5 | CCCSP(=O)(OCC)Oc1cnn(-c2cc([N+](=O)[O-])ccc2C)c1 (stereo not shown) [compound 39] | 100 | > 300 |  |  |  | 
6 | CCOP(=S)(OCC)Oc1cnn(-c2ccccc2Cl)c1 [compound 11] |  | > 300 | 3 (Not less than 90) | 0 (Not more than 20) |  | 
7 | CCCOP(=S)(OCC)Oc1cn(-c2ccccc2)nc1C(=O)OCC (stereo not shown) [compound 6] |  | > 300 |  |  | 97 | 70
8 | CCCSP(=S)(OCC)Oc1cnn(-c2ccc(Cl)c(Cl)c2)c1 (stereo not shown) [compound 32] | 100 | > 300 | 3 (Not less than 90) | 3 (Not less than 90) |  | 
9 | CCCSP(=O)(OCC)Oc1cnn(-c2ccc(I)cc2)c1 (stereo not shown) [compound 20] | 100 | > 300 | 3 (Not less than 90) | 3 (Not less than 90) | 100 | 65
10 | CCCSP(=S)(OCC)Oc1cnn(-c2cc(Cl)c(Cl)cc2Cl)c1 (stereo not shown) [compound 43] | 100 | > 300 | 3 (Not less than 90) | 3 (Not less than 90) | 85 | 40
11 | CCCSP(=S)(OCC)Oc1cnn(-c2ccc(Br)cc2)c1 (stereo not shown) [compound 10] | 100 | > 300 | 3 (Not less than 90) | 3 (Not less than 90) |  | 
12 | CCCSP(=O)(OCC)Oc1cnn(-c2cc(Cl)c(Cl)cc2Cl)c1 (stereo not shown) [compound 42] | 100 | > 300 | 3 (Not less than 90) | 3 (Not less than 90) | 100 | 40
13 | CCCSP(=S)(OCC)Oc1cnn(-c2ccc(F)cc2)c1 (stereo not shown) [compound 19] | 100 | > 300 | 3 (Not less than 90) | 3 (Not less than 90) |  | 
14 | CCCSP(=O)(OCC)Oc1cn(-c2ccccc2)nc1C(=O)OCC (stereo not shown) [compound 7] | 100 | > 300 | 3 (Not less than 90) | 3 (Not less than 90) |  | 
15 | CCCSP(=O)(OCC)Oc1cnn(-c2ccc(Br)cc2)c1 (stereo not shown) [Compound No. 9] | 100 | > 300 | 3 (Not less than 90) | 3 (Not less than 90) | 100 | 75
16 | CCCSP(=O)(OCC)Oc1cnn(-c2ccc(SC)cc2)c1 (stereo not shown) [compound 26] | 100 | > 300 |  |  |  | 
17 | CCCSP(=S)(OCC)Oc1cn(-c2ccccc2)nc1C(=O)OCC (stereo not shown) [compound 8] | 100 | > 300 | 3 (Not less than 90) | 0 (Not more than 20) |  | 
18 | CCCSP(=O)(OCC)Oc1cnn(-c2ccc(Cl)cc2F)c1 (stereo not shown) [compound 37] | 100 | > 300 | 3 (Not less than 90) | 3 (Not less than 90) | 100 | 90
19 | CCCSP(=O)(OCC)Oc1cnn(-c2ccc(CCC)cc2)c1 (stereo not shown) [compound 24] | 100 | > 300 | 3 (Not less than 90) | 3 (Not less than 90) | 85 | 50
20 | CCCSP(=O)(OCC)Oc1cnn(-c2ccc(Cl)cc2C)c1 (stereo not shown) [compound 38] | 100 | > 300 | 3 (Not less than 90) | 3 (Not less than 90) |  | 
21 | CCCSP(=S)(OCC)Oc1cnn(-c2cccc(Cl)c2)c1 (stereo not shown) [compound 14] | 100 | > 300 | 3 (Not less than 90) | 0 (Not more than 20) |  | 
22 | CCCSP(=O)(OCC)Oc1cnn(-c2c(C)cccc2C)c1 (stereo not shown) [compound 36] | 100 | > 300 | 3 (Not less than 90) | 3 (Not less than 90) |  | 
23 | CCCSP(=S)(OCC)Oc1cnn(-c2cc([N+](=O)[O-])ccc2C)c1 (stereo not shown) [compound 40] | 100 | > 300 |  |  |  | 
24 | CCCSP(=O)(OCC)Oc1cnn(-c2ccc(C)cc2)c1 (stereo not shown) [compound 23] | 100 | 50 to 300 | 3 (Not less than 90) | 3 (Not less than 90) |  | 
25 | CCOP(=S)(OCC)Oc1cnn(-c2ccccc2C)c1 [compound 21] |  | > 300 | 3 (Not less than 90) | 0 (Not more than 20) |  | 
26 | CCCSP(=S)(OCC)Oc1cnn(-c2cccc(C(F)(F)F)c2)c1 (stereo not shown) [compound 28] | 100 | > 300 |  |  |  | 
27 | CCCSP(=S)(OCC)Oc1cnn(-c2ccccc2)c1 (stereo not shown) [Compound No. 5, O-ethyl-O-(1-phenylpyrazol-4-yl)-S-n-propyl phosphorothiolothionate] | 100 | > 300 | 3 (Not less than 90) | 3 (Not less than 90) |  | 

From patent US4474775A, “Pyrazol-4-yl phosphates and insecticidal and acaricidal use” (priority 1979, dated 1984)
